Results reported in ChEMBL document CHEMBL2157932, “Synthesis and pharmacological evaluation of carbamic acid 1-phenyl-3-(4-phenyl-piperazine-1-yl)-propyl ester derivatives as new analgesic agents” (Bioorg Med Chem Lett, 2012).

Key:
[1] = biological target: T1, 5-hydroxytryptamine receptor 1A (Rattus norvegicus) (UniProt P19327); assay: Displacement of [3H]-8-OH-DPAT from 5HT1A receptor in rat hippocampus at 1 uM; format: tissue-based
T1 sequence (whole entry): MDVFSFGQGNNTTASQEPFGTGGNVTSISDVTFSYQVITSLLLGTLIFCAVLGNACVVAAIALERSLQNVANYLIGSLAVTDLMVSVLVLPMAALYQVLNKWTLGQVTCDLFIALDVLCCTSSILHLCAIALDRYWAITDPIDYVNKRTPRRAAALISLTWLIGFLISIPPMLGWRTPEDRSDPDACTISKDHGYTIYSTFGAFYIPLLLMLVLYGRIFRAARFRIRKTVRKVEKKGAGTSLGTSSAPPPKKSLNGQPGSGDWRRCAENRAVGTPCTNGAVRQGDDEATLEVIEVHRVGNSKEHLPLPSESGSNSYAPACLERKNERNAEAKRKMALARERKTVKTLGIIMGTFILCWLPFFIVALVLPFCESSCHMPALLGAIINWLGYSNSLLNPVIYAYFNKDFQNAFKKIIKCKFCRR

[2] = biological target: 5-hydroxytryptamine receptor 2A (Rattus norvegicus) (UniProt P14842); assay: Displacement of [3H]-ketanserin from 5HT2A receptor in rat cortical membrane at 1 uM; format: cell membranes
Mus musculus [3] = assay: Analgesic activity in mouse assessed as inhibition of acetic acid-induced writhing response at 10 mg/kg, po administered 0.5 to 1 hr before acetic acid challenge; format: functional
Mus musculus [4] = assay: Analgesic activity in mouse assessed as inhibition of acetic acid-induced writhing response at 10 mg/kg, ip administered 0.5 to 1 hr before acetic acid challenge; format: functional; conditions: route intraperitoneal
Mus musculus [5] = assay: Neurotoxicity in mouse at 50 mg/kg, ip by rotarod test; format: toxicity, organism-based; parameters: dose 50 mg/kg, route intraperitoneal; conditions: in vivo
[6] = Neurotoxicity in ip dosed mouse by rotarod test; format: toxicity, organism-based; conditions: in vivo
[7] = biological target: T2, 5-hydroxytryptamine receptor 1A (Rattus norvegicus, UniProt P19327); assay: Displacement of [3H]-8-OH-DPAT from 5HT1A receptor in rat hippocampus; format: tissue-based
T2 sequence (P19327 whole entry): T1 sequence (whole entry)

[8] = biological target: 5-hydroxytryptamine receptor 2A (Rattus norvegicus, UniProt P14842); assay: Displacement of [3H]-ketanserin from 5HT2A receptor in rat cortical membrane; format: cell membranes
Mus musculus [9] = assay: Analgesic activity in ip dosed mouse assessed as inhibition of acetic acid-induced writhing response administered 0.5 to 1 hr before acetic acid challenge; format: functional
[10] = Half life in human liver microsomes by LC/MS/MS; format: ADME, Microsome
[11] = Half life in rat liver microsomes by LC/MS/MS; format: ADME, Microsome
[12] = Neurotoxicity in po dosed mouse by rotarod test; format: toxicity, organism-based; conditions: in vivo

Sequence of 5-hydroxytryptamine receptor 2A (Rattus norvegicus) (P14842 whole entry): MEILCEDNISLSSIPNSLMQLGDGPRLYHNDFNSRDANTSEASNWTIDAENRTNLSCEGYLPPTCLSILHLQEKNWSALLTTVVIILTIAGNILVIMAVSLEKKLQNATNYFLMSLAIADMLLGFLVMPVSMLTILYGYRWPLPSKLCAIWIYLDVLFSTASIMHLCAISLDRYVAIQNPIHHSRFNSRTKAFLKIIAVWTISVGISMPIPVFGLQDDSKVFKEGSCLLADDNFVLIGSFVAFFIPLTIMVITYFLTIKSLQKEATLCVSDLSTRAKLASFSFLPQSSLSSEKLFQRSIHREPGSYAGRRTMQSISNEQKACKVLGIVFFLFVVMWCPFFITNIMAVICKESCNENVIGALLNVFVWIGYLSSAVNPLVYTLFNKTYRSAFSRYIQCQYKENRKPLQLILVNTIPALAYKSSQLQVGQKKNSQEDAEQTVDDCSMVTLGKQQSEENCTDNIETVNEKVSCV
Sequence of 5-hydroxytryptamine receptor 2A (P14842 whole entry): as above

**Q.** Which results are given for `COc1ccc(C(CCN2CCN(c3ccccc3)CC2)OC(N)=O)cc1` (single isomer, unassigned)?
**A.** inhibition [1]: 67.7%; inhibition [2]: 82%; inhibition in vivo at 10 mg/kg (Mus musculus [3]): 43%; inhibition in vivo at 10 mg/kg (Mus musculus [4]): 100%; Activity (Mus musculus [5]): Toxic

**Q.** Which inhibition in vivo at 10 mg/kg (Mus musculus [3]) does the source give for `Cc1cccc(C)c1N1CCN(CCC(OC(N)=O)c2ccccc2)CC1` (single isomer, unassigned) here?
**A.** The inhibition in vivo at 10 mg/kg was 48%.

**Q.** For `NC(=O)OC(CCN1CCN(c2ccccc2F)CC1)c1ccccc1` (single isomer, unassigned), which TD50 [6] is on record?
**A.** Its TD50 is 44.7 mg/kg.

**Q.** With `COc1ccc(N2CCN(CCC(OC(N)=O)c3ccc(C)c(C)c3)CC2)cc1` (single isomer, unassigned) as the compound, how does the inhibition in vivo at 10 mg/kg (Mus musculus [3]) read?
**A.** Its inhibition in vivo at 10 mg/kg is 58%.

**Q.** Which IC50 [7] does the source give for `O[C@H](CCN1CCN(c2ccccc2)CC1)c1ccccc1` here?
**A.** The IC50 was 174 nM.

**Q.** What about the IC50 [8] of the same compound?
**A.** Its IC50 is 452 nM.

**Q.** What about the inhibition in vivo at 10 mg/kg (Mus musculus [4]) of the same compound?
**A.** Its inhibition in vivo at 10 mg/kg is 70.1%.

**Q.** Which results are given for `NC(=O)O[C@H](CCN1CCN(c2ccccc2)CC1)c1ccccc1`?
**A.** IC50 [7]: 534 nM; IC50 [8]: 62 nM; ED50 (Mus musculus [9]): 0.18 mg/kg; half-life [10]: 62 min; half-life [11]: 8 min

**Q.** With `NC(=O)OC(CCN1CCN(c2ccc(C(F)(F)F)cc2[N+](=O)[O-])CC1)c1ccccc1` (single isomer, unassigned) as the compound, how does the inhibition in vivo at 10 mg/kg (Mus musculus [3]) read?
**A.** The inhibition in vivo at 10 mg/kg was 50%.

**Q.** For `NC(=O)OC(CCN1CCN(c2ccccc2O)CC1)c1ccccc1` (single isomer, unassigned), which inhibition in vivo at 10 mg/kg (Mus musculus [3]) is on record?
**A.** The inhibition in vivo at 10 mg/kg was 37%.

**Q.** Which inhibition in vivo at 10 mg/kg (Mus musculus [3]) does the source give for `NC(=O)OC(CCN1CCN(c2ccc(OC(F)(F)F)cc2)CC1)c1ccccc1` (single isomer, unassigned) here?
**A.** The inhibition in vivo at 10 mg/kg was 18%.

**Q.** What does the source list for `NC(=O)OC(CCN1CCN(c2ccc([N+](=O)[O-])cc2)CC1)c1ccc(F)cc1` (single isomer, unassigned)?
**A.** inhibition [1]: 29.6%; inhibition [2]: 29.6%; inhibition in vivo at 10 mg/kg (Mus musculus [3]): 70%; TD50 [12]: 97.8 mg/kg

**Q.** With `NC(=O)OC(CCN1CCN(c2ccc(F)cc2)CC1)c1ccc(F)cc1` (single isomer, unassigned) as the compound, how does the inhibition [1] read?
**A.** The inhibition was 60.9%.

**Q.** What about the inhibition [2] of the same compound?
**A.** Its inhibition is 93.9%.

**Q.** And the inhibition in vivo at 10 mg/kg (Mus musculus [3])?
**A.** Its inhibition in vivo at 10 mg/kg is 52%.

**Q.** With `NC(=O)OC(CCN1CCN(c2ccc(Cl)cc2)CC1)c1ccccc1` (single isomer, unassigned) as the compound, how does the inhibition in vivo at 10 mg/kg (Mus musculus [4]) read?
**A.** The inhibition in vivo at 10 mg/kg was 52%.

**Q.** For `COc1cccc(N2CCN(CCC(OC(N)=O)c3ccccc3)CC2)c1` (single isomer, unassigned), which inhibition in vivo at 10 mg/kg (Mus musculus [4]) is on record?
**A.** Its inhibition in vivo at 10 mg/kg is 55%.

**Q.** Which results are given for `NC(=O)OC(CCN1CCN(c2ccccc2)CC1)c1cccc([N+](=O)[O-])c1` (single isomer, unassigned)?
**A.** inhibition [1]: 74.6%; inhibition [2]: 86.4%; inhibition in vivo at 10 mg/kg (Mus musculus [3]): 48%; inhibition in vivo at 10 mg/kg (Mus musculus [4]): 100%

**Q.** With `NC(=O)OC(CCN1CCN(c2ccc(C(F)(F)F)cc2)CC1)c1ccccc1` (single isomer, unassigned) as the compound, how does the IC50 [7] read?
**A.** Its IC50 is 7220 nM.

**Q.** And the IC50 [8]?
**A.** Its IC50 is 2110 nM.

**Q.** Which ED50 (Mus musculus [9]) does the source give for `NC(=O)OC(CCN1CCN(c2ccccc2)CC1)c1ccccc1` (racemic) here?
**A.** Its ED50 is 0.49 mg/kg.

**Q.** What about the TD50 [6] of the same compound?
**A.** Its TD50 is 52.3 mg/kg.

**Q.** What about the TD50 [12] of the same compound?
**A.** Its TD50 is 124 mg/kg.

**Q.** What about the half-life [10] of the same compound?
**A.** The half-life was 19 min.

**Q.** Which IC50 [7] does the source give for `O=C(CCN1CCN(c2ccccc2)CC1)c1ccccc1` here?
**A.** Its IC50 is 47.5 nM.

**Q.** And the IC50 [8]?
**A.** Its IC50 is 1070 nM.

**Q.** What about the inhibition in vivo at 10 mg/kg (Mus musculus [4]) of the same compound?
**A.** Its inhibition in vivo at 10 mg/kg is 37.2%.

**Q.** For `NC(=O)OC(CCN1CCN(c2ccc(O)cc2)CC1)c1ccc(F)cc1` (single isomer, unassigned), which half-life [10] is on record?
**A.** Its half-life is 149 min.

**Q.** Which inhibition in vivo at 10 mg/kg (Mus musculus [3]) does the source give for `COc1ccc(N2CCN(CCC(OC(N)=O)c3ccccc3)CC2)c(OC)c1` (single isomer, unassigned) here?
**A.** Its inhibition in vivo at 10 mg/kg is 19%.

**Q.** With `NC(=O)OC(CCN1CCN(c2ccc(Cl)c(C(F)(F)F)c2)CC1)c1ccccc1` (single isomer, unassigned) as the compound, how does the inhibition in vivo at 10 mg/kg (Mus musculus [3]) read?
**A.** Its inhibition in vivo at 10 mg/kg is 52%.

**Q.** What does the source list for `Cc1ccccc1N1CCN(CCC(OC(N)=O)c2ccccc2)CC1` (single isomer, unassigned)?
**A.** IC50 [7]: 149 nM; IC50 [8]: 78.3 nM
